Results on 18 substances are retold here after patent US8030446B2, “Mutant proline-and-arginine rich peptides and methods for using the same” (Trustees of Dartmouth College, priority 2006, dated 2011).

The target of assay [1] is T1, Mammalian (Human) 20s Proteasome (Homo sapiens, UniProt P25788).
T1 construct: purchased Boston Biochem (Cambridge, Mass.)
The assay can be described thus: Chymotrypsin-like (ChT-L) peptidase activity of 20S proteasome, N-succinyl-LLVY-AMC substrate. It is filed as biochemical. The settings on record: for IC50: 15-minute pre-incubation, 1 hour at 37° C., pH 7.5, 0.03% SDS. As to the method: Determination of Enzymatic Activity. Mammalian (Human) 20s Proteasome was purchased from Boston Biochem (Cambridge, Mass.); substrate, N-succinyl-LLVY-AMC was purchased from SIGMA (St. Louis, Mo.); and negative control, Lactacystin, was purchased from SIGMA. […] Activity was determined by measuring the amount of a fluorescence observed upon release of the MCA group after a 1 hour incubation at 37° C. in 50 mM sodium phosphate buffer at pH 7.5 containing 0.03% SDS. Inhibition by PR-peptide was measured after a 15-minute pre-incubation at 37° C. of each peptide with 20S proteasome, followed by the addition of the substrate and the one hour incubation.

Assay [2] deals with genes regulating the NF-κB pathway in human umbilical vein endothelial cells (HUVEC). The assay can be described thus: NF-κB pathway-specific gene expression microarray in HUVEC treated with PR peptides. The class given is cell-based. Particulars: for overall inhibitory effect on NF-κB pathway-related gene expression (in words): FIG. 1, averaged % inhibition over 13 down-regulated genes, relative to PR11; for AKT1 gene expression / ATF2 gene expression / CREB1 gene expression / ELK3 gene expression / JNK1 gene expression / MEK4 gene expression / MEKK1 gene expression / MEKK2 gene expression / NF-κB1 gene expression / NF-κB2 gene expression / P38 MAPK gene expression / RANK gene expression / RIP gene expression / TAK1 gene expression / TBK1 gene expression / TRAF6 gene expression / number of significantly reduced genes: HUVEC; for AKT1 gene expression / ATF2 gene expression / CREB1 gene expression / ELK3 gene expression / JNK1 gene expression / MEK4 gene expression / MEKK1 gene expression / MEKK2 gene expression / NF-κB1 gene expression / NF-κB2 gene expression / P38 MAPK gene expression / RANK gene expression / RIP gene expression / TAK1 gene expression / TBK1 gene expression / TRAF6 gene expression: PR peptides 1 μM, 8 hours, relative to untreated controls; for number of significantly reduced genes: of the 13 down-regulated genes of Tables 5 and 6. As to the method:
Cell Culture. Human umbilical vein endothelial cells (HUVEC, Cambrex Bio Science Walkersville, Inc., East Rutherford, N.J.) were cultured in endothelial cell basal medium-2 supplemented with EGM-2 SINGLEQUOTS (Cambrex Bio Science Walkersville, Inc.) and FBS. Confluent HUVEC, passage 3-5, were starved overnight in medium supplemented with 0.5% FBS, 0.25% BSA and incubated with PR peptides (1 μM) for 8 hours in starvation medium.
Total RNA Extraction and Gene Profiling by Microarray. Total RNA extraction was performed using the RNEASY mini kit protocol (QIAGEN, Valencia, Calif.). The quality and quantity of total RNA was determined using RNA 6000 Nano chips (Agilent Technology, Santa Clara, Calif.).
Gene profiling was performed using pathway-specific gene expression array for NF-κB signaling transduction (HS-016.2, SuperArray Bioscience Corp.). A total of 96 cDNA fragments from genes related to NF-κB mediated signal transduction, including: NF-κB/IκB family, NF-κB responsive genes (adhesion molecules, cytokines), extracellular ligands, transmembrane receptors, adaptor proteins, signal transduction kinases, and transcription factors were printed in tetraspot format on 3.8×4.8 cm nylon array membrane. Total RNA (0.5 μg) was reverse-transcribed into cDNA labeled with biotin-dUTP according to the manufacture's protocol. After overnight hybridization at 60° C., array membranes were treated with alkaline phosphate-conjugated streptavidin followed by chemiluminescent alkaline phosphate substrate CDP-star (Applied Biosystems, Foster City, Calif.) and exposed to X-ray film. The data were extracted from raw images using […] software (SuperArray, Bioscience Corp.). After background subtraction, the level of gene expression was determined as signal intensity units relative to total array intensity signal. Statistical significant altered genes (PR peptides vs. control) at P values <0.05 were analyzed by Student's t-test, 2-tailed distribution. The data were expressed as fold change PR peptides relative to controls (untreated cells kept in similar conditions).

[3] abbreviates: chymotrypsin-like activity, read-out: I50.

Values joined by “and” are separate entries in the source; they are usually repeats but may differ in a detail not shown here. Identical values can stand only once. Like-named read-outs stand apart in the source and are kept apart here. Marks after values point to notes of the source that are not given here. Ends that are not written are not given here.

For the substance AAAPRPPYLPR [AAA, reference compound], the IC50 in assay [1] (I50, chymotrypsin-like activity) was over 100 µM.

For AARPRPPYLPR [AAR], the IC50 in assay [1] (setting [3]) is 14.5 µM.

Turning to ARAPRPPYLPR [ARA], the IC50 in assay [1] (setting [3]) came out at 11.3 µM.

As for ARRPRPPELPR [Peptide A1E8], the IC50 in assay [1] (setting [3]) stood at 49.4 µM. In assay [2], the “overall inhibitory effect on NF-κB pathway-related gene expression (in words)” value (from here on “overall inhibitory effect”) was “reduced activity compared with PR11 or Trp12”, the AKT1 gene expression turned out to be 0.8 fold change, the ATF2 gene expression is listed as −1.5* fold change and the CREB1 gene expression is given as −2.2* fold change. Also, in assay [2], the ELK3 gene expression entry is listed as “^−1.9^# fold change”, the JNK1 gene expression is listed as −1.5 fold change, the MEK4 gene expression was −1.2 fold change and the MEKK1 gene expression is −0.8 fold change. In assay [2], the MEKK2 gene expression is −1.2 fold change, the NF-κB1 gene expression was −1.6 fold change, the NF-κB2 gene expression is given as −3.5* fold change and the “P38 MAPK gene expression” value is reported as −1.6 fold change. Besides, in assay [2], the RANK gene expression was 1.3 fold change, the RIP gene expression was −10.4^# fold change, the TAK1 gene expression is recorded as −1.8 fold change and the TBK1 gene expression is −2.0^# fold change. For the same substance, in assay [2], the TRAF6 gene expression is given as −1.6 fold change.

Turning to ARRPRPPYLPR [Peptide A1], the IC50 in assay [1] (setting [3]) was found to be 2.81 µM. In assay [2], the “overall inhibitory effect” value is recorded as “dramatically reduced PR11 activity”, the AKT1 gene expression was found to be 1.3 fold change, the ATF2 gene expression is −1.4* fold change and the CREB1 gene expression was −1.4 fold change. In assay [2], this substance displayed an ELK3 gene expression of 0.9 fold change, a JNK1 gene expression of −1.1 fold change, an MEK4 gene expression of −0.9 fold change and an MEKK1 gene expression of −1.0 fold change. In addition, in assay [2], the MEKK2 gene expression is reported as −1.2 fold change, the NF-κB1 gene expression is −1.1 fold change, the NF-κB2 gene expression is recorded as −1.1 fold change and the “P38 MAPK gene expression” value is −1.1 fold change. Further, in assay [2], the RANK gene expression came to 1.2 fold change, the RIP gene expression was −0.9 fold change, the TAK1 gene expression is −1.4* fold change and the TBK1 gene expression was −1.4* fold change. In assay [2], this substance returned a TRAF6 gene expression of −1.1 fold change.

Regarding “H-RRRPRPPYLPRPRPPPFFPPRLPPRIPPGFPPRFPPRFP-OH [PR39, reference compound]”, the IC50 in assay [1] (setting [3]) was determined as 0.004 µM.

KKKPRPPYLPR [KKK]: the IC50 in assay [1] (setting [3]) worked out at 2.71 µM. Further, in assay [2], the “overall inhibitory effect” value is “lowest inhibitory effect in this series”, the AKT1 gene expression was found to be 1.7 fold change, the ATF2 gene expression is listed as −1.3 fold change and the CREB1 gene expression is −1.3 fold change. Further, in assay [2], the ELK3 gene expression was 1.4^# fold change, the JNK1 gene expression is on record as −2.5 fold change, the MEK4 gene expression is reported as −2.8* fold change and the MEKK1 gene expression is listed as −2.0 fold change. In addition, in assay [2], the MEKK2 gene expression is −1.5 fold change, the NF-κB1 gene expression is recorded as −2.4 fold change, the NF-κB2 gene expression was −1.4 fold change and the “P38 MAPK gene expression” value was −1.3 fold change. Moreover, in assay [2], the RANK gene expression came out at 1.2 fold change, the RIP gene expression is −2.6 fold change, the TAK1 gene expression was −2.9* fold change and the TBK1 gene expression is −1.8^# fold change. In assay [2], the TRAF6 gene expression is listed as −1.3 fold change and the “number of significantly reduced genes” value worked out at 3 genes.

KRRPRPPELPR [Peptide K1E8]: in assay [1] (setting [3]), the IC50 is 6.34 µM. In addition, in assay [2], the “overall inhibitory effect” value is “higher than that of Glu8 or Ala1Glu8”, the AKT1 gene expression turned out to be 0.6 fold change, the ATF2 gene expression was −2.6^# fold change and the CREB1 gene expression is listed as −5.0^# fold change. In assay [2], the ELK3 gene expression result is recorded as “^−1.9^# fold change”, the JNK1 gene expression is −2.2 fold change, the MEK4 gene expression is on record as −1.9* fold change and the MEKK1 gene expression was −1.4 fold change. Also, in assay [2], the MEKK2 gene expression is −3.0^# fold change, the NF-κB1 gene expression is listed as −1.9 fold change, the NF-κB2 gene expression is −2.3* fold change and the “P38 MAPK gene expression” value is −2.6^# fold change. Moreover, in assay [2], the RANK gene expression was determined as 0.7 fold change, the RIP gene expression is −3.3* fold change, the TAK1 gene expression was −2.4^# fold change and the TBK1 gene expression is reported as −3.6^# fold change. Besides, in assay [2], the TRAF6 gene expression is listed as −5.5* fold change.

As to RAAPRPPYLPR [RAA], the IC50 in assay [1] (setting [3]) was found to be 20.1 µM.

As to RARPRPPYLPR [Peptide A2], the IC50 in assay [1] (setting [3]) was 2.77 µM. Also, in assay [2], the “overall inhibitory effect” value is on record as “dramatically reduced PR11 activity”, the AKT1 gene expression is 1.4 fold change, the ATF2 gene expression is given as −1.2 fold change and the CREB1 gene expression was −1.4 fold change. Besides, in assay [2], the ELK3 gene expression is recorded as 1.0 fold change, the JNK1 gene expression is listed as −1.5 fold change, the MEK4 gene expression is −1.9 fold change and the MEKK1 gene expression was −1.8 fold change. Also, in assay [2], the MEKK2 gene expression was −0.9 fold change, the NF-κB1 gene expression is on record as −1.2 fold change, the NF-κB2 gene expression was −0.8 fold change and the “P38 MAPK gene expression” value is recorded as −0.9 fold change. In assay [2], this substance showed an RANK gene expression of 1.4 fold change, an RIP gene expression of −1.1 fold change, a TAK1 gene expression of −0.8 fold change and a TBK1 gene expression of −1.3 fold change. In assay [2], this substance showed a TRAF6 gene expression of −1.1 fold change.

As to RKRPRPPYLPR [Peptide K2], the IC50 in assay [1] (setting [3]) came to 0.543 µM. In assay [2], the “overall inhibitory effect” value is reported as “not significantly different than PR11”, the AKT1 gene expression was determined as 1.6 fold change, the ATF2 gene expression was −2.0^# fold change and the CREB1 gene expression is recorded as −2.6 fold change. Besides, in assay [2], the ELK3 gene expression is reported as 1.5* fold change, the JNK1 gene expression is −3.1 fold change, the MEK4 gene expression is reported as −9.3^# fold change and the MEKK1 gene expression is reported as −5.3* fold change. Besides, in assay [2], the MEKK2 gene expression was −1.7 fold change, the NF-κB1 gene expression is −2.1 fold change, the NF-κB2 gene expression is −1.5 fold change and the “P38 MAPK gene expression” value is −1.4 fold change. In assay [2], the RANK gene expression is 1.1 fold change, the RIP gene expression was −2.8* fold change, the TAK1 gene expression is −2.1* fold change and the TBK1 gene expression is −4.6^# fold change. In addition, in assay [2], the TRAF6 gene expression is −2.5 fold change and the “number of significantly reduced genes” value came to 6 genes.

Regarding RRRARPPYLPR [Peptide A4], the IC50 in assay [1] (setting [3]) is 5 µM and 4.99 µM.

Turning to RRRPAPPYLPR [Peptide A5], the IC50 in assay [1] (setting [3]) was found to be 2.65 µM.

On to RRRPRAPYLPR [Peptide A6], for which the IC50 in assay [1] (setting [3]) worked out at 1.22 µM.

As for RRRPRPAYLPR [Peptide A7], the IC50 in assay [1] (setting [3]) turned out to be 0.851 µM.

With RRRPRPPYGPR [Peptide G9], in assay [1] (chymotrypsin-like activity), the “20S proteasome inhibiting activity (in words)” value was “fully active”. Besides, in assay [1] (setting [3]), the IC50 was 0.137 µM.

Turning to RRRPRPPYLAR [Peptide A10], the IC50 in assay [1] (setting [3]) was 0.782 µM.

As to RRRPRPPYLPA [Peptide A11], in assay [1] (setting [3]), the IC50 came out at 0.685 µM.
